In the NIST ThermoML archive (doi:10.1016/j.fluid.2014.06.010):
Numbers after ± are expanded uncertainties.

Conditions: Liquid; Closed cell (Static) method

Row | SMILES | Normal boiling temperature [°C]
1 | CC(=O)CC(C)C [4-methylpentan-2-one] | 119.2 ± 0.2
2 | CC(O)C(=O)O (configuration not stated) [2-hydroxypropanoic acid] | 125.1 ± 0.2
